# Where two headings read alike, the source gives them in different places.
# Key:
# [1] = system: Normal human paranasal sinus mucosa; assay: Inhibitory effect on the reduction of ciliary movement in paranasal sinus mucosa induced by LTs; type: cell-based; details: pranlukast hydrate 1 μM, FIG. 1
# From the text: Inhibitory Effect of Pranlukast Hydrate on the Reduction of Ciliary Movement in Paranasal Sinus Mucosa Induced by LTs
# 1) Culturing of Paranasal Sinus Mucosa
# Normal human paranasal sinus mucosa obtained at the time of surgical operation of facial trauma or the like was used on the agreement of the patient. The collected paranasal sinus mucosa was thoroughly washed with a culture medium RPMI 1640 (Gibco Life Technologies), cut into 4 mm×4 mm species and then subjected to tissue culture in a culturing chamber of 35 mm×10 mm using RPMI 1640 containing 10% FCS (fetal calf serum). In order to remove mucus and cellular debris, the culture medium was exchanged every other day.
# 2) Preparation of Test Solutions […]
# When a test solution was added to the mucosal tissue, culture medium in the chamber was removed and mucosal tissue was washed with RPMI 1640 and then the test solution (1 ml) was injected. As a control, the ciliary activity was measured in case of injecting only RPMI 1640 into the chamber. By defining the ciliary activity measured just before injection of each test solution (0 minute) as the reference value (100), the ciliary activity measured after injection of each test solution was expressed as percentage (%) of the reference value. […]
# [2] = system: intractable sinusitis patients; assay: Effect of pranlukast hydrate on intractable sinusitis (clinical, oral administration); type: in vivo, human; details: 450 mg/day oral
# Experimental: Effect of Pranlukast Hydrate on Intractable Sinusitis
# Pranlukast hydrate was orally administered to intractable sinusitis patients (34 persons, average age 54.4 years) at a daily dose of 450 mg (112.5 mg/capsule, 2 capsules per 1 time, twice a day (after every breakfast and supper), every day administration). On the 2 weeks, 4 weeks, 6 weeks and 8 weeks after the administration, 1) improving degree of the nasal mucosa swelling, 2) improving degree of the properties of nasal flow, 3) improving degree of the amount of nasal flow, 4) improving degree of the postnasal discharge, 5) improving degree of the nasal obstruction, 6) improving degree of the nasal flow (frequency of blowing nose) and 7) improving degree of the X-ray shadow of each patient were judged (however, parameters in respective weeks are not constant).
# mice = details: both, mouse, in vivo
# Experimental: (§1) It was confirmed that the compound of the formula (I) or a salt and/or hydrate thereof has sufficiently low toxicity and is sufficiently safe for using it as a medicament. For example, as the acute toxicity of pranlukast hydrate, its minimum lethal dose was 2,000 mg/kg or more (oral or subcutaneous administration), or 30 mg/kg or more (intravenous injection) in mice and rats (both males and females).
# rats = details: both, rat, in vivo
# Experimental: as §1
smiles,measurement,setting,value
"O=C(Nc1cccc2c(=O)cc(-c3nnn[nH]3)oc12)c1ccc(OCCCCc2ccccc2)cc1 [pranlukast hydrate, 4-oxo-8-[4-(4-phenylbutoxy)benzoylamino]-2-(tetrazol-5-yl)4H-1-benzopyran·½ hydrate]",inhibition of reduction of paranasal sinus mucosa ciliary activity induced by LTC4,"[1]; LTC4 0.1 μM, ciliary activity after 6 hours",has the activity to inhibit reduction of paranasal sinus mucosa ciliary activity
same,inhibition of reduction of paranasal sinus mucosa ciliary activity induced by LTD4,"[1]; LTD4 0.1 μM, ciliary activity after 4 hours",has the activity to inhibit reduction of paranasal sinus mucosa ciliary activity
same,"Effective ratio, improving degree of the amount of nasal flow",[2]; on the 2nd week,52%
same,"Effective ratio, improving degree of the nasal flow (frequency of blowing nose)",[2]; on the 2nd week,34%
same,"Effective ratio, improving degree of the nasal mucosa swelling",[2]; on the 2nd week,32%
same,"Effective ratio, improving degree of the nasal obstruction",[2]; on the 2nd week,19%
same,"Effective ratio, improving degree of the postnasal discharge",[2]; on the 2nd week,39%
same,"Effective ratio, improving degree of the properties of nasal flow",[2]; on the 2nd week,33%
same,"Effective ratio, improving degree of the amount of nasal flow",[2]; on the 4th week,55%
same,"Effective ratio, improving degree of the nasal flow (frequency of blowing nose)",[2]; on the 4th week,52%
same,"Effective ratio, improving degree of the nasal mucosa swelling",[2]; on the 4th week,29%
same,"Effective ratio, improving degree of the nasal obstruction",[2]; on the 4th week,21%
same,"Effective ratio, improving degree of the postnasal discharge",[2]; on the 4th week,38%
same,"Effective ratio, improving degree of the properties of nasal flow",[2]; on the 4th week,48%
same,"Effective ratio, improving degree of the amount of nasal flow",[2]; on the 6th week,68%
same,"Effective ratio, improving degree of the nasal flow (frequency of blowing nose)",[2]; on the 6th week,65%
same,"Effective ratio, improving degree of the nasal mucosa swelling",[2]; on the 6th week,43%
same,"Effective ratio, improving degree of the nasal obstruction",[2]; on the 6th week,35%
same,"Effective ratio, improving degree of the postnasal discharge",[2]; on the 6th week,39%
same,"Effective ratio, improving degree of the properties of nasal flow",[2]; on the 6th week,52%
same,"Effective ratio, improving degree of the X-ray shadow",[2]; on the 8th week,83%
same,"Effective ratio, improving degree of the amount of nasal flow",[2]; on the 8th week,65%
same,"Effective ratio, improving degree of the nasal flow (frequency of blowing nose)",[2]; on the 8th week,60%
same,"Effective ratio, improving degree of the nasal mucosa swelling",[2]; on the 8th week,40%
same,"Effective ratio, improving degree of the nasal obstruction",[2]; on the 8th week,29%
same,"Effective ratio, improving degree of the postnasal discharge",[2]; on the 8th week,62%
same,"Effective ratio, improving degree of the properties of nasal flow",[2]; on the 8th week,53%
same,overall clinical effect on subjective symptoms and objective findings of intractable sinusitis,[2]; summary of Tables 1 to 7,has clinical effects on sinusitis
same,minimum lethal dose,mice; iv,≥ 30 mg/kg
same,minimum lethal dose,mice; po,"≥ 2,000 mg/kg"
same,minimum lethal dose,mice; sc,"≥ 2,000 mg/kg"
same,minimum lethal dose,rats; iv,≥ 30 mg/kg
same,minimum lethal dose,rats; po,"≥ 2,000 mg/kg"
same,minimum lethal dose,rats; sc,"≥ 2,000 mg/kg"

# From patent publication US7252835B2, “Agent for preventing and/or treating sinusitis” (Ono Pharmaceutical Co., Ltd., priority 1998, dated 2007)
